Patent publication US20030129168A1, “Expression of proteins for treating asthma via ligand mediated activation of their encoding genes” (ARIAD Gene Therapeutics, Inc., priority 1996, published 2003)

How the values were obtained:
[1] = tested on: myristoylated chimeric CD3/FKBP12 (MZF3E) receptor; assay: FK1012 activation of myristoylated chimeric CD3/FKBP12 (MZF3E) receptor, NFAT SEAP reporter in Jurkat T cells; type: cell-based, human; conditions: addition of 1 ng/ml FK506
Text: In an illustrative case, this was accomplished by creating an intracellular receptor comprised of a small fragment of Src sufficient for posttranslational myristoylation (M), the cytoplasmic tail of zeta (Z; a component of the […] was also used), three consecutive FKBP12s (F3) and a flu epitope tag (E). […] The promoter of the SEAP reporter gene was constructed to be transcriptionally activated by nuclear factor of activated T cells (NFAT), which is assembled in the nucleus following TCR-signaling.
Specifically, 5 μg of the eukaryotic expression vector, pBJ5, containing a myristoylated chimeric receptor was co-transfected with 4 μg NFAT-SX. MZE, MZF1E, MZF2E and MZF3E contain 0, 1, 2, or 3 copies of FKBP12, respectively, downstream of a myristoylated CD3 cytoplasmic domain (see FIG. 2 of PCT/US94/01617). As a control, 5 μg of pBJ5 was used in a parallel transfection. After 24 hours, aliquots of each transfection containing approximately 10^5 cells were incubated with log dilutions of the drug, FK1012B, as indicated. As a positive control and to control for transfection efficiency, ionomycin (1 μm) and PMA (25 ng/ml) were added to aliquots from each transfection. After an additional 12 hour incubation, the supernatants were assayed for alkaline phosphatase activity and these activities were expressed relative to that of the positive control samples. […] Compare FIGS. 7 and 8 of PCT/US94/01617.

[2] = tested on: chimeric FKBP12/CD3 (1FK3) receptor; assay: FK1012A activation of chimeric FKBP12/CD3 (1FK3) receptor, NFAT-SX SEAP reporter; type: cell-based; conditions: addition of 2 ng/ml FK506
Procedure: 5 μg of the eukaryotic expression vector, pBJ5, (based on pCDL-SR with a polylinker inserted between the 16S splice site and the poly A site), containing the chimeric receptor (1FK3), was co-transfected with 4 μg of the NFAT-inducible secreted alkaline phosphatase reporter plasmid, NFAT-SX. As a control, 5 μg of pBJ5 was used, instead of 1FK3/pBJ5, in a parallel transfection. After 24 hours, aliquots of each transfection containing approximately 10^5 cells were incubated with log dilutions of the drug FK1012A, as indicated. As a positive control and to control for transfection efficiency, ionomycin (1 μM) and PMA (25 ng/ml) were added to aliquots from each transfection. After an additional 14 hour incubation, the supernatants were assayed for alkaline phosphatase activity and these activities were expressed relative to that of the positive control samples. […] Each data point obtained was the average of two samples and the experiment was performed several times with similar results.

NFAT = assay: SEAP reporter activation by cross-linking chimeric receptor TAC/TAC/Z (TTZ) in TAg Jurkat cells; type: cell-based, human; conditions: addition of 1 ng/ml FK506; TTZ-transfected TAg Jurkat cells on bound anti-TAC mAb
Text: The plasmid pSXNeo/IL2 (IL2-SX) (FIG. 1 of PCT/US94/01617), which contains the placental secreted alkaline phosphatase gene under the control of human IL-2 promoter (−325 to +47; MCB(86) 6, 3042), and related plasmid variants (i.e. NFAT-SX, NFB-SX, OAP/Octl-SX, and AP-1-SX) in which the reporter gene is under the transcriptional control of the minimal IL-2 promoter (−325 to −294 and −72 to +47) combined with synthetic oligomers containing various promoter elements (i.e. NFAT, NKB, OAP/Oct-1, and AP1, respectively), were made by three piece ligations of 1) pPL/SEAP (Berger, et al., Gene (1988) 66,1) cut with Sspl and HindIII; 2) pSV2/Neo (Southern and Berg, J. Mol. Appl. Genet. (1982) 1, 332) cut with NdeI, blunted with Kilenow, then cut with PvuI; and 3) various promoter-containing plasmids (i.e. NFAT-CD8, B-CD8, cxl2lacZ-Oct-1, AP1-LUCIF3H, or cx151L2) (described below) cut with PvuI and HindIII. NFAT-CD8 contains 3 copies of the NFAT-binding site (−286 to −257; Genes and Dev. (1990) 4, 1823) and cx121acZ-Oct contains 4 copies of the OAP/Oct-1/(ARRE-1) binding site (MCB, (1988) 8, 1715) from the human IL-2 enhancer; B-CD8 contains 3 copies of the NFB binding site from the murine light chain (EMBO (1990) 9,4425) and AP1-LUCIF3H contains 5 copies of the AP-1 site (5′-[…]-3′) from the metallothionen promoter. […]

## C=CC[C@@H]1/C=C(\C)C[C@H](C)C[C@H](OC)[C@H]2O[C@@](O)(C(=O)C(=O)N3CCCC[C@H]3C(=O)O[C@H](/C(C)=C/[C@@H]3CC[C@@H](O)[C@H](OC)C3)[C@H](C)[C@@H](O)CC1=O)[C@H](C)C[C@@H]2OC [FK506]
[1]
  alkaline phosphatase activity (FK1012B stimulations): dropped all stimulations to near background levels
[2]
  alkaline phosphatase activity (FK1012A stimulations): dropped all stimulations to background levels
NFAT
  alkaline phosphatase activity due to NFAT: dropped all activity due to NFAT to background levels
